Measurements: US12227495B2, “Herbicidal compounds” (SYNGENTA CROP PROTECTION AG, priority 2018, dated 2025)

Experiments:
Type in all cases: in vivo
[1] = tested on: Echinochloa crus-galli (ECHCG); assay: Pre-emergence herbicide test, glasshouse, percentage damage; details: rate 1000 g/ha, evaluated after 13 days
Summary of the method: (§1)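 Pots of standard soil were sown and kept in a glasshouse at 24/16 °C day/night, 14 h light, 65% humidity; plants were sprayed one day after sowing (pre-emergence) or after 8 days (post-emergence) at 500 g/ha unless otherwise stated. Damage was scored after 13 days on a five-point scale (5=81-100%; 1=0-20%).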

Solanum nigrum (SOLNI) [2] = assay: as above; details: rate 1000 g/ha, evaluated after 13 days
Summary of the method: as §1

Lolium perenne (LOLPE) [3] = assay: as above; details: rate 1000 g/ha, evaluated after 13 days
Summary of the method: as §1

Setaria faberi (SETFA) [4] = assay: as above; details: rate 1000 g/ha, evaluated after 13 days
Summary of the method: as §1

[5] = tested on: Amaranthus retoflexus (AMARE); assay: as above; details: rate 1000 g/ha, evaluated after 13 days
Summary of the method: as §1

[6] = tested on: Ipomoea hederacea (IPOHE); assay: as above; details: rate 1000 g/ha, evaluated after 13 days
Summary of the method: as §1

[7] = tested on: Echinochloa crus-galli (ECHCG); assay: Post-emergence herbicide test, glasshouse, percentage damage; details: 1000 g/ha, evaluated after 13 days
Summary of the method: as §1

Solanum nigrum (SOLNI) [8] = assay: as above; details: 1000 g/ha, evaluated after 13 days
Summary of the method: as §1

Lolium perenne (LOLPE) [9] = assay: as above; details: 1000 g/ha, evaluated after 13 days
Summary of the method: as §1

Setaria faberi (SETFA) [10] = assay: as above; details: 1000 g/ha, evaluated after 13 days
Summary of the method: as §1

[11] = tested on: Amaranthus retoflexus (AMARE); assay: as above; details: 1000 g/ha, evaluated after 13 days
Summary of the method: as §1

[12] = tested on: Ipomoea hederacea (IPOHE); assay: as above; details: 1000 g/ha, evaluated after 13 days
Summary of the method: as §1

SMILES	Pre-emergence Test ECHCG percentage damage (five point scale) [1]	Pre-emergence Test SOLNI percentage damage (five point scale) (Solanum nigrum (SOLNI) [2])	Pre-emergence Test LOLPE percentage damage (five point scale) (Lolium perenne (LOLPE) [3])	Pre-emergence Test SETFA percentage damage (five point scale) (Setaria faberi (SETFA) [4])	Pre-emergence Test AMARE percentage damage (five point scale) [5]	Pre-emergence Test IPOHE percentage damage (five point scale) [6]	percentage damage caused to the plant, ECHCG [7]	percentage damage caused to the plant, SOLNI (Solanum nigrum (SOLNI) [8])	percentage damage caused to the plant, LOLPE (Lolium perenne (LOLPE) [9])	percentage damage caused to the plant, SETFA (Setaria faberi (SETFA) [10])	percentage damage caused to the plant, AMARE [11]	percentage damage caused to the plant, IPOHE [12]
Fc1cccc(Oc2cc(C(F)(F)F)c(C(F)(F)F)cn2)c1-c1cc(C(F)F)no1 [Compound A78]	1 (1=0-20%)	1 (1=0-20%)	1 (1=0-20%)	2 (2=21-40%)	1 (1=0-20%)	1 (1=0-20%)	1 (1=0-20%)	4 (4=61-80%)	1 (1=0-20%)	1 (1=0-20%)	3 (3=41-60%)	1 (1=0-20%)
Fc1cccc(Oc2nc(Cl)ccc2C(F)(F)F)c1-c1cc(C(F)F)no1 [Compound A80]	1 (1=0-20%)	1 (1=0-20%)	1 (1=0-20%)	1 (1=0-20%)	2 (2=21-40%)	1 (1=0-20%)	1 (1=0-20%)	5 (5=81-100%)	1 (1=0-20%)	1 (1=0-20%)	5 (5=81-100%)	1 (1=0-20%)
Fc1cc(Cl)cnc1Oc1ccccc1-n1ncc(C(F)(F)F)n1 [Compound A81]	4 (4=61-80%)	3 (3=41-60%)	1 (1=0-20%)	4 (4=61-80%)	5 (5=81-100%)	2 (2=21-40%)	4 (4=61-80%)	4 (4=61-80%)	1 (1=0-20%)	4 (4=61-80%)	5 (5=81-100%)	2 (2=21-40%)
Fc1cc(Cl)cnc1Oc1ccccc1-n1cc(C(F)(F)F)nn1 [Compound A82]	5 (5=81-100%)	4 (4=61-80%)	5 (5=81-100%)	5 (5=81-100%)	5 (5=81-100%)	5 (5=81-100%)	4 (4=61-80%)	5 (5=81-100%)	5 (5=81-100%)	5 (5=81-100%)	5 (5=81-100%)	5 (5=81-100%)
Fc1cc(Cl)cnc1Oc1c(Br)cccc1-c1cc(C(F)F)no1 [Compound A83]	2 (2=21-40%)	1 (1=0-20%)	1 (1=0-20%)	2 (2=21-40%)	4 (4=61-80%)	1 (1=0-20%)	4 (4=61-80%)	4 (4=61-80%)	4 (4=61-80%)	4 (4=61-80%)	5 (5=81-100%)	2 (2=21-40%)
N#Cc1cc(F)cnc1Oc1cccc(Br)c1-c1cc(C(F)F)no1 [Compound A84]	5 (5=81-100%)	4 (4=61-80%)	5 (5=81-100%)	5 (5=81-100%)	5 (5=81-100%)	5 (5=81-100%)	5 (5=81-100%)	5 (5=81-100%)	5 (5=81-100%)	5 (5=81-100%)	5 (5=81-100%)	5 (5=81-100%)
N#Cc1cc(F)cnc1Oc1cccc(Cl)c1-c1cc(C(F)F)no1 [Compound A85]	5 (5=81-100%)	5 (5=81-100%)	5 (5=81-100%)	5 (5=81-100%)	5 (5=81-100%)	5 (5=81-100%)	5 (5=81-100%)	5 (5=81-100%)	5 (5=81-100%)	5 (5=81-100%)	5 (5=81-100%)	5 (5=81-100%)
FC(F)c1cc(-c2c(Br)cccc2Oc2cc(Cl)ccn2)on1 [Compound A86]	5 (5=81-100%)	2 (2=21-40%)	4 (4=61-80%)	5 (5=81-100%)	4 (4=61-80%)	1 (1=0-20%)	4 (4=61-80%)	4 (4=61-80%)	4 (4=61-80%)	4 (4=61-80%)	4 (4=61-80%)	4 (4=61-80%)
